Measured values as given in US5321035A, “Piperidine derivatives and process for preparation thereof” (Shionogi & Co., Ltd., priority 1992, dated 1994).

Assays:
[1] = system: hippocampus CAI pyramidal cells; experiment: Inhibitory effect against delayed necrosis of hippocampus pyramidal cells after cerebral ischemia (bilateral common carotid artery ligation); assay type: in vivo, Mongolian gerbil; settings: for injury (%) in pyramidal cell layer: 30 min before 5 min occlusion, 4th day; for inhibition (%) of injury: vs control
Protocol: Inhibitory effect against the delayed necrosis of hippocampus CAI pyramidal cells was determined.
Compound (a) and compound (b) were again used in this experiment. Three to eight male mice (Mongolian gerbil, 11 to 12-week-old, Seiwa Jikken-dobutsuKenkyusyo) were used for one group.
Each animal was intraperitoneally administered a solution of the test compound (a) or (b) dissolved in distilled water, or only distilled water (for control) at 0.2 ml/100 g weight of the animal. Thirty minutes later, under the halothane anesthesia, bilateral common carotid artery was separated from surrounding tissues and ligated for a period of 5 min with Sugita's artery Klemme. Anesthesia was stopped at the time of artery occlusion. On the 4th day after the operation, each animal was anesthetized with pentobarbital Na (45 mg/kg), and brain was perfused with 4% paraformaldehyde solution and removed. From the brain was prepared a piece of cerebral preparation containing hippocampus. It was placed in Carnoy's fixative overnight for fixation and embedded in paraffin, from which sliced coronal preparations of 10 μm thick were prepared. Each cerebral preparation was stained with hematoxylin-eosin and the rate of injury (%) in pyramidal cell layer extending from paramedian to CA4 was observed using two-dimensional image analyzer (Cosmozon IS, Nicon).

[2] = system: [3H]5-HT uptake by synaptosomes; experiment: {3H} Serotonin (5-HT) Uptake Inhibition Test in brain synaptosomes; assay type: biochemical, rat (male Slc: Wistar strain); settings: for IC50: 5 nM [3H]5-HT, 5 min at 37° C, rat brain synaptosomes
From the text: (1) Evaluation of Effects on Neurotransmittal Systems {^3 H} Serotonin (5-HT) Uptake Inhibition Test
Compound (a): a compound of the present invention
Compound (b): 1-[3-{4-(3,4-dichlorophenyl)-piperidin-1-yl}propylcarbamoyl]-2-oxopyrrolidin (Japanese Patent Publication (KOKAI) No.131155/1989).
Male Slc: Wistar strain rats (12-week-old, Japan SLC).
Rats were killed by decapitation and a whole brain except for cerebellum is isolated immediately. The isolated tissue was homogenized in 20 volume of ice-cold 0.32 M sucrose solution by Potter-type homogenizer and centrifuged at 1,000× g for 10 min. The supernatant is centrifuged at 40,000× g for 20 min. The resultant pellet is resuspended in 20 volume of Krebs-Henseleit buffer containing 1 mM ascorbate, 0.17 mM EDTA and 0.08 mM pargyline by Polytron and centrifuged at 40,000× g for 10 min, which procedure was repeated two more times. The finally obtained pellet was resuspended in 20 volume of ice-cold Krebs-Henseleit buffer using Polytron. The resultant suspension was diluted to 1/10 with the same buffer to give a synaptosome sample.
A mixture of 5 nM [^3 H]5-HT (10 μl), synaptosome sample (480 μl ) and a solution (10 μl ) containing a test compound at a predetermined concentration was incubated for 5 min at 37° C. The reaction was stopped by diluting the mixture with ice-cold Krebs-Henseleit buffer (2.5 ml) and filtering with suction on Whatman GF/C paper. The filter paper was washed three times with ice-cold Krebs-Henseleit buffer (2.5 ml each) and allowed to stand for about 18 hr in Cleasol-1 solution (5 ml). The radioactivity was then measured by means of a liquid scintillation counter. A control experiment was carried out in the same manner as the above using 5 nM [^3 H]5-HT (10 μl ), synaptosome sample (480 μl ) and a solvent (10 μl ) used for dissolving a test compound to obtain blank values of radioactivity. […]

[3] = system: 7-alkoxycumarin-O-dialkylase; experiment: Enzyme Induction Test (liver microsomal 7-alkoxycumarin-O-dialkylase activities after repeated dosing); assay type: in vivo, mouse (male, DS)
Protocol: Male mice (DS, 5-6 week-old) received intraperitoneally 100 mg/kg of the compound (a) of the present invention or the compound (c) (1-[3-}4-(3,4,-dichlorophenyl)-1,2,5,6-tetrahydropiperidin-1-yl}propylcarbamoyl]-2-oxopyrrolidine) suspended in 5% gum arabic once a day for three days. After 24 hrs from the final administration, the liver was removed from the animal, and liver microsome was prepared by means of centrifugal fractionation. Additional liver microsomes were prepared in the same manner as above by intraperitoneally administering a typical enzyme inducer, phenobarbital (dissolved in saline) or β-naphthoflavone (suspended in sesame oil), to mice. Enzymatic activities of the above liver microsomes on drug metabolism were evaluated by determining their 7-alkoxycumarin-O-dialkylase activities.

[4] = mouse, in vivo, ip, 100 mg/kg, 1440 min
[5] = i.p., compounds (a), (c): 100 mg/kg once a day for three days, control = 1.00
[6] = i.p., compounds (a), (c): 100 mg/kg once a day for three days, liver microsomes
[7] = three days, compared with the control

Compound	injury (%) in pyramidal cell layer ([1]; 12.5 mg/kg i.p.) [%]	inhibition (%) of injury ([1]; 12.5 mg/kg i.p.)	injury (%) in pyramidal cell layer ([1]; 25.0 mg/kg i.p.) [%]	inhibition (%) of injury ([1]; 25.0 mg/kg i.p.)	injury (%) in pyramidal cell layer ([1]; 50.0 mg/kg i.p.) [%]	inhibition (%) of injury ([1]; 50.0 mg/kg i.p.)	IC50 [2] [µM]	deethylation activity (7-alkoxycumarin-O-dialkylase) ([3]; mouse, in vivo, ip, 100 mg/kg)	demethylation activity (7-alkoxycumarin-O-dialkylase) ([3]; mouse, in vivo, ip, 100 mg/kg)	depropylation activity (7-alkoxycumarin-O-dialkylase) ([3]; mouse, in vivo, ip, 100 mg/kg)	deethylation activity, ratio to control (in parentheses) [3, 4]	demethylation activity, ratio to control (in parentheses) [3, 4]	depropylation activity, ratio to control (in parentheses) [3, 4]	deethylation activity, ratio to control (in parentheses) [3, 5]	demethylation activity, ratio to control (in parentheses) [3, 5]	depropylation activity, ratio to control (in parentheses) [3, 5]	deethylation activity (7-alkoxycumarin-O-dialkylase) [3, 6]	demethylation activity (7-alkoxycumarin-O-dialkylase) [3, 6]	depropylation activity (7-alkoxycumarin-O-dialkylase) [3, 6]	also measured
1-[3-{4-(3,4-dichlorophenyl)-piperidin-1-yl}propylcarbamoyl]-2-oxopyrrolidin [Compound (b)]	44.0 ± 3.2	+2.8%	28.1 ± 8.3	+38.0%	30.7 ± 3.9	+32.1%	23													
O=C1CCCN1C(=O)NCCCN1CCC(c2ccc(Cl)c(Cl)c2)CC1 [Compound (a), 1-[3-{4-(3,4-Dichlorophenyl)piperidin-1-yl}-propylcarbamoyl]-2-oxopyrrolidine]	45.9 ± 2.1	+8.0%	33.6 ± 5.3	+32.7%	0	+100%	0.13	2.59 ± 0.27 nmol/min/mg of microsome protein	2.79 ± 0.33 nmol/min/mg of microsome protein	1.08 ± 0.12 nmol/min/mg of microsome protein	0.98	1.08	0.89							enzyme induction (in words) ([3]; mouse, in vivo): no enzyme induction was observed; inhibition of delayed necrosis of hippocampus CAI pyramidal cells (in words) ([1]; 50 mg/kg i.p.): completely inhibited; inhibition of delayed necrosis of hippocampus CAI pyramidal cells (in words) ([1]; 12.5 and 25 mg/kg i.p.): significantly inhibited; serotonin uptake inhibitory activity (in words) ([2]; compared to compound (b)): much more potent serotonin uptake inhibitory activity
O=C1CCCN1C(=O)NCCCN1CC=C(c2ccc(Cl)c(Cl)c2)CC1 [Compound (c)]														1.99	1.61	2.20	2.29 ± 0.18 nmol/min/mg of microsome protein	1.83 ± 0.19 nmol/min/mg of microsome protein	0.99 ± 0.55 nmol/min/mg of microsome protein	enzyme induction (in words) ([3]; mouse liver, three days): carcinogenic enzyme induction of β-naphthoflavone type (3-methylcholanthrene type); increase in deethylation and depropylation activities [3, 7]: 1.99-2.20 times; increase in demethylation activity [3, 7]: 1.61 times
CCC1(c2ccccc2)C(=O)NC(=O)NC1=O [phenobalbital, phenobarbital]														2.53	2.29	2.20	2.63 ± 0.18 nmol/min/mg of microsome protein	2.18 ± 0.13 nmol/min/mg of microsome protein	1.06 ± 0.06 nmol/min/mg of microsome protein	
O=c1cc(-c2ccccc2)oc2ccc3ccccc3c12 [β-naphtoflavone, β-naphthoflavone]								5.26 ± 0.28 nmol/min/mg of microsome protein	1.94 ± 0.08 nmol/min/mg of microsome protein	2.97 ± 0.20 nmol/min/mg of microsome protein	5.06	2.04	6.19							
